In one series the test system is Male Hooded Lister rats. Description: Rat social interaction test. The series is classed as in vivo. The settings on record: for social interactions: 40 min. before testing, 10 min session, n = 6.
The test system of series [1] is male albino BKW mice. The settings on record: mouse, in vivo.
In series [2] the test system is male albino BKW mice. Description: Light/dark exploration of mice (black:white test box). Conditions: for numbers of rears and line crossings at the highest dose (sedation) / latency to entering the dark compartment: subcutaneously; for numbers of rears and line crossings at the highest dose (sedation): 0.1 mg/kg, drug not sedative at this level; for numbers of rears and line crossings compared with controls (sedation): not sedative at the dosage level.

For another series, the target named is sigma receptors. Description: Sigma receptor binding assay, displacement of [³H]DTG. The settings on record: guinea pig brain membrane homogenates, radioligand [³H]DTG […], 90 minutes at room temperature; read-out: IC₅₀ binding values. The method, then:
Briefly, frozen whole guinea-pig brains (Biotrol, Indianapolis, IN) were homogenized in 10 volumes (w/v) of ice-cold 320 mM sucrose using a Brinkman polytron. The homogenate was centrifuged at 1,000 x g for 20 minutes at 4°C. The supernatant was centrifuged at 20,000 x g for 20 minutes at 4°C. The resulting pellet was resuspended in 10 initial volumes of 50 mM Tris/HCl buffer at pH 7.4 and centrifuged at 20,000 x g for 20 minutes at 4°C. The resulting pellet was resuspended in 5 initial volumes ice-cold 50mM Tris/Hcl (pH .4), and the final volume was adjusted to yield a protein concentration of 3 mg/ml, as determined by dye-binding protein assay (Biorad) using BSA as the standard.
Incubations were terminated after 90 minutes at room temperature by addition of 4 ml of ice-cold 50mM Tris/HCl (pH 7.4) and rapid filtration of the membrane suspension through Whatman GF/B glass-fiber filters under vacuum, using a 48-well cell harvester (Brandel, Gaithersburg, MD). The filters were washed 2 times with 4 ml of 50 mM Tris/HCl (pH 7.4). Total filtration and washing time was less than 20 seconds. Each filter was dissolved in 10 ml Cytoscint (Westchem, San Diego, CA), and radioactivity was measured by liquid scintillation spectrometry at a counting efficiency of approximately 50%. IC₅₀ values were determined by interpolation from displacement-curve plots on semilogarithmic graph paper.

[3] abbreviates: subcutaneously 40 min before testing, 0.01 ug to 0.1 mg/kg.
Where [4] appears, read: 0.01 ug to 0.1 mg/kg, result in words.

Where two headings read alike, the source gives them in different places. Bounds are passed on as bounds.

Text for Male Hooded Lister rats: A second preferred animal model is the rat social interaction test described by Jones, B.J. et al., supra, wherein the time that two mice spend in social interaction is quantified. […] Both the familiarity and the light level of the test arena may be manipulated. Undrugged rats show the highest level of social interaction when the test arena is familiar and is lit by low light. Social interaction declines if the arena is unfamiliar to the rats or is lit by bright light. Anxiolytic agents prevent this decline. The overall level of motor activity may also be measured to allow detection of drug effects specific to social behaviors.
Male Hooded Lister rats (Glaxo bred, 200-250g), were housed 5 to a cage and were kept in the laboratory environment for at least a week before testing. Rats paired in the test were taken from separate cages.
The test arena consisted of an open-topped box, 62 x 62 x 33 cm with a 7 x 7 matrix of infra-red photocell beams in the walls, 2.5 cm from the floor.
Testing involved placing each member of a pair of rats in opposite corners of the arena and then leaving them undisturbed for 10 min. while recording their behavior remotely on videotape. The behavioral assessments were made subsequently from the recordings. The time spent in social interaction was measured and expressed as a cumulative total for the 10 min session. The behaviors that comprised social interaction were: following with contact, sniffing (but not sniffing of the hindquarters), crawling over and under, tumbling, boxing and grooming.
N-adamantyl-N'-o-tolylguanidine was tested over the range of 0.001-0.1 mg/kg.

Consider `CN1C(=O)CN=C(c2ccccc2)c2cc(Cl)ccc21` [diazepam, reference compound], for which the social interactions entry in the series on Male Hooded Lister rats (diazepam intraperitoneally 0.125-1 mg/kg) was “significantly increased”. Besides, the “numbers of rears and line crossings at the highest dose (sedation)” value (“numbers … at the highest dose (sedation)” for short) in the series with male albino BKW mice [1] was “decreased significantly”. Besides, in the series on male albino BKW mice [2] (mouse, in vivo), the “numbers of line crossings and rears in the light compartment” value (shortened to “numbers of line crossings and rears”) is listed as “increased at the expense of those in the dark compartment”; the “proportion of time the mice spent in the larger, lighted area of the test chamber” value (“proportion … of the test chamber” for short) is “dose-dependently increased”.

With N,N-di(o-tolyl)-guanidine [DTG], in the series on male albino BKW mice [2] (s.c., at the concentrations tested, Figure 7), the “number of rears, crossings, or the % time in the black compartment” value is “did not affect significantly”.

With “N-(adamant-1-yl)-N'-[(E)-2-phenylethenyl]phenylguanidine”, at sigma receptors, the IC50 is 1000 nM. In addition, in the series on male albino BKW mice [2] (setting [3]), the “numbers of line crossings and rears” value is reported as “tended to remain the same except at the highest dosage”; the “proportion … of the test chamber” value was “generally did not increase”. Also, the “numbers … at the highest dose (sedation)” value in the series with male albino BKW mice [2] is “did not decrease significantly”.

In the case of `CCN1CCCC1CNC(=O)c1cc(S(N)(=O)=O)ccc1OC` (centres unmarked) [sulpiride, reference compound], the IC50 at sigma receptors is above 100 nM.

Regarding `N=C(Nc1ccccc1I)N[C@H]1C[C@@H]2CC[C@H]1C2` (relative stereo) [N-(exo-2-norbornyl)-N'-(2-iodophenyl)guanidine], the IC50 at sigma receptors was found to be 4 nM.

For the molecule `N=C1Nc2ccccc2-c2ccccc2N1` [Bridge-DPG, 2-imino-1,3H-dibenzo[d,f]-[1,3]-diazepine], the IC50 on sigma receptors is above 100000 nM.

Regarding `Cc1ccccc1NC(=N)Nc1ccc(N)cc1C` [NH₂-DTG], the IC50 at sigma receptors was determined as 280 ± 20 nM.

With `CN(C)CCCN1c2ccccc2Sc2ccc(Cl)cc21` [chlorpromazine, reference compound], the IC50 at sigma receptors is 1480 ± 265 nM.

Regarding `Cc1ccccc1NC(=N)N[C@@H]1C[C@@H]2CC[C@H]1C2` (racemic) [N-((±)-endo-2-norbornyl)-N'-(2-methylphenyl)guanidine], on sigma receptors, the IC50 is 6 nM.

For `O=C1CC2(CCCC2)CC(=O)N1CCCCN1CCN(c2nsc3ccccc23)CC1` [tiospirone, reference compound], the IC50 at sigma receptors worked out at 233 ± 52 nM.

As to `NC(=Nc1ccccc1I)NC12CC3CC(CC(C3)C1)C2` [AdIpG, N-(2-iodophenyl)-N'-(adamant-1-yl)guanidine], the IC50 on sigma receptors came out at 6.2 nM. Also, in the series with male albino BKW mice [2] (orally administered, 1 mg/kg), the “anxiolytic activity when orally administered” value is “anxiolytic activity”; the “latency to entering the dark compartment in comparison to controls” value is “increase”; the “numbers of line crossings and rears” value is reported as “increase”; the “numbers of rears and line crossings compared with controls (sedation)” value was “did not decrease significantly”. Also, in the series on male albino BKW mice [2] (setting [3]), the “numbers of line crossings and rears” value is “increased at the expense of those in the dark compartment”; the “proportion … of the test chamber” value is “increased, in a dose dependant manner”. For the same molecule, the “latency to entering the dark compartment” value with male albino BKW mice [2] (setting [4]) is reported as “increased in a dose dependant manner”. For the same molecule, the “numbers … at the highest dose (sedation)” value in the series with male albino BKW mice [2] is given as “did not decrease significantly”.

On to `CNC(=N)NC` [DMG, N,N'-di(methyl)guanidine], for which the IC50 on sigma receptors is above 100000 nM.

With `N=C(Nc1ccccc1I)NC1C2CC3CC(C2)CC1C3` (centres unmarked) [N-adamant-2-yl)-N'-(2-iodophenyl)guanidine], the IC50 on sigma receptors came to 3.5 nM.

For the molecule `Cc1cccc(C)c1NC(=N)Nc1c(C)cccc1C` [DXG, N,N'-di-(2,6-dimethylphenyl)-guanidine], on sigma receptors, the IC50 was 90 ± 18 nM.

As for `Cc1ccccc1NC(=N)NC1C2CC3CC(C2)CC1C3` (centres unmarked) [N-(adamant-2-yl)-N'-(2-methylphenyl)guanidine], on sigma receptors, the IC50 stood at 7 nM.

As to `C=CCN1CC[C@@]2(C)c3cc(O)ccc3C[C@@H]1[C@@H]2C` [(-)-SKF10047, reference compound], the IC50 at sigma receptors came to 4000 ± 566 nM.

Turning to `Cc1ccccc1NC(=N)N[C@H]1C[C@@H]2CC[C@H]1C2` (relative stereo) [N-(exo-2-norbornyl)-N'-(2-methylphenyl)guanidine], the IC50 at sigma receptors is 7 nM.

For `Cc1ccccc1NC(=N)NC12CC3CC(CC(C3)C1)C2` [AdTG, N-(o-tolyl)-N'-(adamant-1-yl)guanidine], in the series on Male Hooded Lister rats (0.001-0.1 mg/kg i.p.), the social interactions entry was “significantly increased”. For the same molecule, the “dose producing about the same result, relative to the dose of diazepam” value in the series on Male Hooded Lister rats (1 mg/kg for diazepam and 0.1 mg/kg for N-adamantyl-N'-o-tolylguanidine) is given as “one-tenth”. Further, in the series with male albino BKW mice [2] (orally administered, 1 mg/kg), the “anxiolytic activity when orally administered” value is “anxiolytic activity”; the “numbers of line crossings and rears” value is “increased at the expense of those in the dark compartment”; the “proportion of time the mice spent in the larger, lighted area of the box” value was “increased significantly”. For the same molecule, in the series with male albino BKW mice [2] (setting [3]), the “numbers of line crossings and rears” value is on record as “increased at the expense of those in the dark compartment”; the “proportion … of the test chamber” value was “dose dependently increased”. Also, the “latency to entering the dark compartment” value in the series on male albino BKW mice [2] (setting [4]) was “increased in a dose dependant manner”. Besides, the “numbers … at the highest dose (sedation)” value in the series on male albino BKW mice [2] is listed as “did not decrease significantly”.

Take `N=C(Nc1ccccc1I)N[C@@H]1C[C@@H]2CC[C@H]1C2` (racemic) [N-((±)-endo-2-norbornyl)-N'-(2-iodophenyl)guanidine]: the IC50 on sigma receptors amounted to 5 nM.

On to `N=C(NC12CC3CC(CC(C3)C1)C2)NC12CC3CC(CC(C3)C1)C2` [DAG, N,N'-di(adamant-1-yl)guanidine], for which, in the series with male albino BKW mice [2] (orally administered, 1 mg/kg), the “anxiolytic activity when orally administered” value is recorded as “anxiolytic activity”; the “latency to entering the dark compartment in comparison to controls” value is listed as “increase”; the “numbers of line crossings and rears” value is recorded as “increase”; the “numbers of rears and line crossings compared with controls (sedation)” value was “did not decrease significantly”. Besides, in the series with male albino BKW mice [2] (setting [3]), the “numbers of line crossings and rears” value is “increased at the expense of those in the dark compartment”; the “proportion … of the test chamber” value is given as “tended to increase”. Moreover, the “numbers … at the highest dose (sedation)” value in the series on male albino BKW mice [2] is on record as “did not decrease significantly”. Further, in the series with male albino BKW mice [2] (peak effect at 0.01 ug/kg, controls 12 sec), the “latency to entering the dark compartment” value turned out to be 20 s.

For the molecule `CCCN1CCC[C@@H](c2cccc(O)c2)C1` [(-)-3-PPP, reference compound], the IC50 on sigma receptors was 280 ± 21 nM.

With `N=C(NC1CCCCC1)NC12CC3CC(CC(C3)C1)C2` [AdChG, N-(cyclohexyl)-N'-(adamant-1-yl)guanidine], the IC50 on sigma receptors is 12.5 nM.

`Cc1ccccc1NC(=N)NC1CCCCC1` [N-cyclohexyl-N'-(2-methylphenyl)-guanidine]: at sigma receptors, the IC50 stood at 13 nM.

Consider `Cc1ccccc1NC(=N)NC1CCCCC1` [DChG, N-(o-tolyl)-N'-(cyclohexyl)guanidine], for which the IC50 at sigma receptors is 86 ± 17 nM.

These data come from EP0473671B1, “USE OF SIGMA-RECEPTORS LIGANDS FOR THE MANUFACTURE OF AN ANXIOLYTIC AGENT” (STATE OF OREGON BY AND THROUGH OREGON STATE BOARD OF HIGHER …, priority 1989, dated 1990).
